{"source": "patent EP4813989A1", "about": "“CRYSTAL, PHARMACEUTICAL COMPOSITION, PREPARATION METHOD THEREFOR, AND USE THEREOF” (TYK Medicines, Inc., priority 2023, dated 2025)", "test": "Pharmacokinetic test in SD rats", "type": "in vivo", "conditions": "for AUC(0-inf) / AUC(0-t) / Cmax / MRT last / Tmax: rat, plasma, po; for AUC(0-inf) / AUC(0-t) / Cmax / MRT last / Tmax / Plasma concentration: 10 mg/kg; for Plasma concentration: 10 mg/kg p.o., listed as compound represented by formula I (amorphous form)", "experimental": "Experimental animals: healthy adult SD rats, male, 6 in total, divided into two groups, with 3 rats per group, aged 6-8 weeks; and body weight approximately 200-300 g. The rats were fed in rat cages, and fasted (for at least 10 hours) with free access to water one day before the experiment. On the day of experiment, the rats were weighed and marked at the tail respectively. Blank blood samples were collected respectively before drug administration. The blood samples were collected via the tail vein. Drug administration method: intragastric gavage (p.o.): intragastric gavage with drug suspension; preparation of drug suspension: approximately 10 mg of test sample was accurately weighed, dissolved in 5% DMSO (calculated proportion), and vortexed with 10% solutol HS-15 and 85% saline to obtain a suspension with a concentration of 1.0 mg/mL; and the suspension was freshly prepared before use.\nSample collection: the rats were administered a single oral dose of 10mg/kg via intragastric gavage (p.o.). Timing was started immediately after the administration was completed, and blood samples were collected at 0.5, 1, 2, 4, 6, 8, 12 and 24 hours after administration. A volume of 0.1mL of whole blood was collected into EDTA-Na2 anticoagulant tubes, mixed by inverting 3-4 times, centrifuged at 10000 g for 5 minutes at 4°C to separate the plasma, and then the plasma was stored at -80 °C until testing. The blood samples were collected via the tail vein.\nSample preparation: 1) the samples were thawed, and 15 µL of unknown plasma samples before or after administration, standard series solutions, and single blank and double blank samples were respectively transferred into 1.5 mL centrifuge tubes. 2) 15 µL of protein precipitant (methanol) and 400 µL of internal standard solution (verapamil in methanol, approximately 10 ng/mL) were added to each sample sequentially, vortexed for 2 minutes, and then centrifuged at 4°C and 12000 rpm for 10 minutes. 3) The supernatant was collected for LC-MS/MS detection.\nAnalytical conditions: liquid chromatography conditions: liquid chromatography system: Shimadzu Nexera X2; chromatographic column: Agilent ZORBAX XDB-C18 3.5 (2.1 × 50 mm); column temperature: 35°C; mobile phase: A-5% acetonitrile (0.1% formic acid in water), B-95% acetonitrile (0.1% formic acid in water); injection volume: 3 µL; and\nflow rate: 0.5 mL/min. Gradient elution was employed, and an elution program can be seen in the table below.\nMass spectrometry conditions: mass spectrometric analysis was carried out using an electrospray ionization (ESI) source in a positive ion mode with multiple reaction monitoring (MRM). The mass spectrometer ion source parameters and compound detection parameters can be seen in the table below.\nPK parameter processing: pharmacokinetic (PK) parameters were calculated according to a plasma concentration from individual plasma concentration and corresponding sampling time data using Phoenix WinNonlin software with a non-compartmental model. (1) The PK parameters used for pharmacokinetic evaluation included: Cmax, AUC0-t, AUC0-∞, Tmax and t1/2.\n(2) The parameters used for bioequivalence evaluation: Cmax, AUC0-t and AUC0-∞ were used for the bioequivalence evaluation.\nCmax: maximum plasma concentration measured within specified period, presented as measured value.\nTmax: time measured to reach maximum plasma concentration, presented as measured value. If the maximum value occurred at more than one time point, Tmax was defined as the first time point at which this value was observed.\nAUC0-t: area under plasma concentration-time curve from 0 to last time point t.\nAUC0-∞: area under plasma concentration-time curve from 0 to infinity. Ct was the last measured concentration, and λz was the terminal elimination rate constant. AUC0−∞ = AUC0−t + (Ct)/(λz)AUC0−∞ = AUC0−t + (Ct)/(λz) [formula]\nt1/2: elimination or terminal half-life, estimated by ln2/λz.", "key": {"[1]": {"conditions": "Mean of rats No. 1-3, intragastric gavage at 10 mg/kg"}, "[2]": {"conditions": "rat No. 1, intragastric gavage at 10 mg/kg"}, "[3]": {"conditions": "rat No. 2, intragastric gavage at 10 mg/kg"}, "[4]": {"conditions": "rat No. 3, intragastric gavage at 10 mg/kg"}, "[5]": {"conditions": "rats, intragastric gavage 10 mg/kg, Mean"}}, "data": [{"smiles": "C[C@@H](Nc1ccn2ncc(C3=NOC(C)(C)N3)c2n1)c1cc(F)cc(F)c1F", "note": "[amorphous form]", "values": [{"measurement": "HL_", "setting": "[1]", "result": 8.72, "unit": "h"}, {"measurement": "HL_", "setting": "[2]", "result": 6.05, "unit": "h"}, {"measurement": "HL_", "setting": "[3]", "result": 17.2, "unit": "h"}, {"measurement": "HL_", "setting": "[4]", "result": 2.93, "unit": "h"}, {"measurement": "AUC(0-inf)", "setting": "[1]", "result": 1560, "unit": "ng·h/mL"}, {"measurement": "AUC(0-t)", "setting": "[1]", "result": 1080, "unit": "ng·h/mL"}, {"measurement": "Cmax", "setting": "[1]", "result": 151, "unit": "ng/mL"}, {"measurement": "MRT last", "setting": "[1]", "result": 7.55, "unit": "h"}, {"measurement": "Tmax", "setting": "[1]", "result": 6, "unit": "h"}, {"measurement": "AUC(0-inf)", "setting": "[2]", "result": 982, "unit": "ng·h/mL"}, {"measurement": "AUC(0-t)", "setting": "[2]", "result": 894, "unit": "ng·h/mL"}, {"measurement": "Cmax", "setting": "[2]", "result": 87.1, "unit": "ng/mL"}, {"measurement": "MRT last", "setting": "[2]", "result": 7.84, "unit": "h"}, {"measurement": "Tmax", "setting": "[2]", "result": 8, "unit": "h"}, {"measurement": "AUC(0-inf)", "setting": "[3]", "result": 3200, "unit": "ng·h/mL"}, {"measurement": "AUC(0-t)", "setting": "[3]", "result": 1910, "unit": "ng·h/mL"}, {"measurement": "Cmax", "setting": "[3]", "result": 307, "unit": "ng/mL"}, {"measurement": "MRT last", "setting": "[3]", "result": 9.26, "unit": "h"}, {"measurement": "Tmax", "setting": "[3]", "result": 4, "unit": "h"}, {"measurement": "AUC(0-inf)", "setting": "[4]", "result": 487, "unit": "ng·h/mL"}, {"measurement": "AUC(0-t)", "setting": "[4]", "result": 428, "unit": "ng·h/mL"}, {"measurement": "Cmax", "setting": "[4]", "result": 58.3, "unit": "ng/mL"}, {"measurement": "MRT last", "setting": "[4]", "result": 5.56, "unit": "h"}, {"measurement": "Tmax", "setting": "[4]", "result": 6, "unit": "h"}, {"measurement": "AUC(0-t)", "setting": "[5]", "result": 1080, "unit": "ng·h/mL"}, {"measurement": "Cmax", "setting": "[5]", "result": 151, "unit": "ng/mL"}, {"measurement": "Plasma concentration", "setting": "rats, 0.5 h, Mean", "result": 41.0, "unit": "ng/mL"}, {"measurement": "Plasma concentration", "setting": "rats, 0.5 h, No. 1", "result": 44.5, "unit": "ng/mL"}, {"measurement": "Plasma concentration", "setting": "rats, 0.5 h, No. 2", "result": 49.0, "unit": "ng/mL"}, {"measurement": "Plasma concentration", "setting": "rats, 0.5 h, No. 3", "result": 29.4, "unit": "ng/mL"}, {"measurement": "Plasma concentration", "setting": "rats, 1 h, Mean", "result": 22.5, "unit": "ng/mL"}, {"measurement": "Plasma concentration", "setting": "rats, 1 h, No. 1", "result": 20.8, "unit": "ng/mL"}, {"measurement": "Plasma concentration", "setting": "rats, 1 h, No. 2", "result": 21.5, "unit": "ng/mL"}, {"measurement": "Plasma concentration", "setting": "rats, 1 h, No. 3", "result": 25.3, "unit": "ng/mL"}, {"measurement": "Plasma concentration", "setting": "rats, 2 h, Mean", "result": 56.2, "unit": "ng/mL"}, {"measurement": "Plasma concentration", "setting": "rats, 2 h, No. 1", "result": 64.1, "unit": "ng/mL"}, {"measurement": "Plasma concentration", "setting": "rats, 2 h, No. 2", "result": 71.2, "unit": "ng/mL"}, {"measurement": "Plasma concentration", "setting": "rats, 2 h, No. 3", "result": 33.2, "unit": "ng/mL"}, {"measurement": "Plasma concentration", "setting": "rats, 4 h, Mean", "result": 142, "unit": "ng/mL"}, {"measurement": "Plasma concentration", "setting": "rats, 4 h, No. 1", "result": 71.7, "unit": "ng/mL"}, {"measurement": "Plasma concentration", "setting": "rats, 4 h, No. 3", "result": 47.9, "unit": "ng/mL"}, {"measurement": "Plasma concentration", "setting": "rats, 6 h, Mean", "result": 86.2, "unit": "ng/mL"}, {"measurement": "Plasma concentration", "setting": "rats, 6 h, No. 1", "result": 72.4, "unit": "ng/mL"}, {"measurement": "Plasma concentration", "setting": "rats, 6 h, No. 2", "result": 128, "unit": "ng/mL"}, {"measurement": "Plasma concentration", "setting": "rats, 6 h, No. 3", "result": 58.3, "unit": "ng/mL"}, {"measurement": "Plasma concentration", "setting": "rats, 8 h, Mean", "result": 68.7, "unit": "ng/mL"}, {"measurement": "Plasma concentration", "setting": "rats, 8 h, No. 1", "result": 87.1, "unit": "ng/mL"}, {"measurement": "Plasma concentration", "setting": "rats, 8 h, No. 2", "result": 84.3, "unit": "ng/mL"}, {"measurement": "Plasma concentration", "setting": "rats, 8 h, No. 3", "result": 34.7, "unit": "ng/mL"}, {"measurement": "Plasma concentration", "setting": "rats, 12 h, Mean", "result": 24.4, "unit": "ng/mL"}, {"measurement": "Plasma concentration", "setting": "rats, 12 h, No. 1", "result": 18.6, "unit": "ng/mL"}, {"measurement": "Plasma concentration", "setting": "rats, 12 h, No. 2", "result": 40.6, "unit": "ng/mL"}, {"measurement": "Plasma concentration", "setting": "rats, 12 h, No. 3", "result": 14.0, "unit": "ng/mL"}, {"measurement": "Plasma concentration", "setting": "rats, 24 h, Mean", "result": 31.2, "unit": "ng/mL"}, {"measurement": "Plasma concentration", "setting": "rats, 24 h, No. 1", "result": 10.2, "unit": "ng/mL"}, {"measurement": "Plasma concentration", "setting": "rats, 24 h, No. 2", "result": 52.2, "unit": "ng/mL"}]}]}
